US20070219203A1, “Arylalkylamino-substituted quinazoline analogues” (Neurogen Corporation, priority 2004, published 2007)

Molecular target: T1, human capsaicin receptor (Homo sapiens, UniProt Q8NER1)
T1 construct: expressed in transfected cells
Assay: Calcium mobilization assay, antagonist activity (Example 6)
Type: cell-based
Conditions: Table I; 50% decrease in fluorescence response of cells expressing human capsaicin receptor exposed to capsaicin
Protocol: A cDNA encoding full length human capsaicin receptor (SEQ ID NO:1, 2 or 3 of U.S. Pat. No. 6,482,611) is subcloned in the plasmid pBK-CMV (Stratagene, La Jolla, Calif.) for recombinant expression in mammalian cells.
Human embryonic kidney (HEK293) cells are transfected with the pBK-CMV expression construct encoding the full length human capsaicin receptor using standard methods. The transfected cells are selected for two weeks in media containing G418 (400 μg/ml) to obtain a pool of stably transfected cells. Independent clones are isolated from this pool by limiting dilution to obtain clonal stable cell lines for use in subsequent experiments.
Cells transfected with expression plasmids (as described in Example 4) and thereby expressing human capsaicin receptor are seeded and grown to 70-90% confluency in FALCON black-walled, clear-bottomed 96-well plates (#3904, BECTON-DICKINSON, Franklin Lakes, N.J.). The culture medium is emptied from the 96 well plates and […] calcium sensitive dye (Molecular Probes, Eugene, Oreg.) is added to each well (dye solution: 1 mg […], 440 μL DMSO and 440 μl 20% pluronic acid in DMSO, diluted 1:250 in Krebs-Ringer HEPES (KRH) buffer (25 mM HEPES, 5 mM KCl, 0.96 mM NaH2PO4, 1 mM MgSO4, 2 mM CaCl2, 5 mM glucose, 1 mM probenecid, pH 7.4), 50 μl diluted solution per well). Plates are covered with aluminum foil and incubated at 37° C. for 1-2 hours in an environment containing 5% CO2. After the incubation, the dye is emptied from the plates, and the cells are washed once with KRH buffer, and resuspended in KRH buffer.
To measure the ability of a test compound to agonize or antagonize a calcium mobilization response in cells expressing capsaicin receptors to capsaicin or other vanilloid agonist, the EC50 of the agonist capsaicin is first determined. An additional 20 μl of KRH buffer and 1 μl DMSO is added to each well of cells, prepared as described above. 100 μl capsaicin in KRH buffer is automatically transferred by the FLIPR instrument to each well. Capsaicin-induced calcium mobilization is monitored using either FLUOROSKAN ASCENT (Labsystems; Franklin, Mass.) or FLIPR (fluorometric imaging plate reader system; Molecular Devices, Sunnyvale, Calif.) instruments. Data obtained between 30 and 60 seconds after agonist application are used to generate an 8-point concentration response curve, with final capsaicin concentrations of 1 nM to 3 μM. KALEIDAGRAPH software (Synergy Software, Reading, Pa.) is used to fit the data to the equation: y=a*(1/(1+(b/x)^c)) to determine the 50% excitatory concentration (EC50) for the response. In this equation, y is the maximum fluorescence signal, x is the concentration of the agonist or antagonist (in this case, capsaicin), a is the Emax, b corresponds to the EC50 value and c is the Hill coefficient. Determination of Agonist Activity
Test compounds are dissolved in DMSO, diluted in 20 μl KRH buffer so that the final concentration of test compounds in the assay well is between 1 μM and 5 μM, and added to cells prepared as described above. The 96 well plates containing prepared cells and test compounds are incubated in the dark, at room temperature for 0.5 to 6 hours. It is important that the incubation not continue beyond 6 hours. Just prior to determining the fluorescence response, 100 μl capsaicin in KRH buffer at twice the EC50 concentration determined as described above is automatically added by the FLIPR instrument to each well of the 96 well plate for a final sample volume of 200 μl and a final capsaicin concentration equal to the EC50. The final concentration of test compounds in the assay wells is between 1 μM and 5 μM. […] The concentration of antagonist required to provide a 50% decrease, relative to the response observed in the presence of capsaicin and without antagonist, is the IC50 for the antagonist, and is preferably below 1 micromolar, 100 nanomolar, 10 nanomolar or 1 nanomolar.

T1 sequence (Q8NER1 whole entry): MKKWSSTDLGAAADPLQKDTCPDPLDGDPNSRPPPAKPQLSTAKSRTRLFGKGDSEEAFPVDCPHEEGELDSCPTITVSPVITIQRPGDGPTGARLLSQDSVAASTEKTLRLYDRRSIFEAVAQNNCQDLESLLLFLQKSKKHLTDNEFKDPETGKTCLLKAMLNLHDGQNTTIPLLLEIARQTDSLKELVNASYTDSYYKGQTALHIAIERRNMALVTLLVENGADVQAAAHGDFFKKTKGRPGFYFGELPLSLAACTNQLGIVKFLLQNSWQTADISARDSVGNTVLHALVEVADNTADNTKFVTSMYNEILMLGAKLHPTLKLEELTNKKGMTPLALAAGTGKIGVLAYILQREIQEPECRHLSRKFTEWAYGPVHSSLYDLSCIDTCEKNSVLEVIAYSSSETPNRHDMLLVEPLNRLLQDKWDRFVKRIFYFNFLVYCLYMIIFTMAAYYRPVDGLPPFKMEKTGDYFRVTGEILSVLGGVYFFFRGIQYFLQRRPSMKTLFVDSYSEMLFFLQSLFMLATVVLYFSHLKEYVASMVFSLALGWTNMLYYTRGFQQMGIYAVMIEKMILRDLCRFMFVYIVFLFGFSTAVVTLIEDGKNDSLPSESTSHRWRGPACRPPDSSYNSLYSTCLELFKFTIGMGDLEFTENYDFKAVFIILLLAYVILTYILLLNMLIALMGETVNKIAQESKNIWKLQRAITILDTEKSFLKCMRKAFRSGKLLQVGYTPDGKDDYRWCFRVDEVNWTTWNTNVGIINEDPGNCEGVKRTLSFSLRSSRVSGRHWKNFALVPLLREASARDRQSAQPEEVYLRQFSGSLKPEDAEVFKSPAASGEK

SMILES	IC50 [nM]
CC(C)COCc1nc(NCCc2ccccc2Cl)c2ccc(-c3ncccc3C(F)(F)F)nc2n1 [Compound 33, N-[2-(2-chlorophenyl)ethyl]-2-(isobutoxymethyl)-7-[3-(trifluoromethyl)pyridin-2-yl]pyrido[2,3-d]pyrimidin-4-amine]	≤ 1000
CC(C)COCc1nc(NCCc2cccc(Cl)c2)c2ccc(-c3ncccc3C(F)(F)F)nc2n1 [Compound 34, N-[2-(3-chlorophenyl)ethyl]-2-(isobutoxymethyl)-7-[3-(trifluoromethyl)pyridin-2-yl]pyrido[2,3-d]pyrimidin-4-amine]	≤ 1000
CC(C)COCc1nc(NCCc2ccc(Cl)cc2)c2ccc(-c3ncccc3C(F)(F)F)nc2n1 [Compound 35, N-[2-(4-chlorophenyl)ethyl]-2-(isobutoxymethyl)-7-[3-(trifluoromethyl)pyridin-2-yl]pyrido[2,3-d]pyrimidin-4-amine]	≤ 1000
CC(C)COCc1nc(NCCc2cccc(F)c2)c2ccc(-c3ncccc3C(F)(F)F)nc2n1 [Compound 36, N-[2-(3-fluorophenyl)ethyl]-2-(isobutoxymethyl)-7-[3-(trifluoromethyl)pyridin-2-yl]pyrido[2,3-d]pyrimidin-4-amine]	≤ 1000
CC(C)COCc1nc(NCCc2ccc(F)cc2)c2ccc(-c3ncccc3C(F)(F)F)nc2n1 [Compound 37, N-[2-(4-fluorophenyl)ethyl]-2-(isobutoxymethyl)-7-[3-(trifluoromethyl)pyridin-2-yl]pyrido[2,3-d]pyrimidin-4-amine]	≤ 1000
CC(C)COCc1nc(NCCc2ccccc2C(F)(F)F)c2ccc(-c3ncccc3C(F)(F)F)nc2n1 [Compound 38, 2-(isobutoxymethyl)-N-{2-[2-(trifluoromethyl)phenyl]ethyl}-7-[3-(trifluoromethyl)pyridin-2-yl]pyrido[2,3-d]pyrimidin-4-amine]	≤ 1000
CC(C)COCc1nc(NCCc2cccc(C(F)(F)F)c2)c2ccc(-c3ncccc3C(F)(F)F)nc2n1 [Compound 39, 2-(isobutoxymethyl)-N-{2-[3-(trifluoromethyl)phenyl]ethYl}-7-[3-(trifluoromethyl)pyridin-2-yl]pyrido[2,3-d]pyrimidin-4-amine]	≤ 1000
CC(C)COCc1nc(NCCc2ccc(C(F)(F)F)cc2)c2ccc(-c3ncccc3C(F)(F)F)nc2n1 [Compound 40, 2-(isobutoxymethyl)-N-{2-[4-(trifluoromethyl)phenyl]ethyl}-7-[3-(trifluoromethyl)pyridin-2-yl]pyrido[2,3-d]pyrimidin-4-amine]	≤ 1000
COc1ccccc1CCNc1nc(COCC(C)C)nc2nc(-c3ncccc3C(F)(F)F)ccc12 [Compound 41, 2-(isobutoxymethyl)-N-[2-(2-methoxyphenyl)ethyl]-7-[3-(trifluoromethyl)pyridin-2-yl]pyrido[2,3-d]pyrimidin-4-amine]	≤ 1000
COc1cccc(CCNc2nc(COCC(C)C)nc3nc(-c4ncccc4C(F)(F)F)ccc23)c1 [Compound 42, 2-(isobutoxymethyl)-N-[2-(3-methoxyphenyl)ethyl]-7-[3-(trifluoromethyl)pyridin-2-yl]pyrido[2,3-d]pyrimidin-4-amine]	≤ 1000
COc1ccc(CCNc2nc(COCC(C)C)nc3nc(-c4ncccc4C(F)(F)F)ccc23)cc1 [Compound 43, 2-(isobutoxymethyl)-N-[2-(4-methoxyphenyl)ethyl]-7-[3-(trifluoromethyl)pyridin-2-yl]pyrido[2,3-d]pyrimidin-4-amine]	≤ 1000
CC(C)COCc1nc(NCCc2ccccc2F)c2ccc(-c3ncccc3Cl)nc2n1 [Compound 44, 7-(3-chloropyridin-2-yl)-N-[2-(2-fluorophenyl)ethyl]-2-(isobutoxymethyl)pyrido[2,3-d]pyrimidin-4-amine]	≤ 1000
CC(C)COCc1nc(NCCc2cccc(F)c2)c2ccc(-c3ncccc3Cl)nc2n1 [Compound 45]	≤ 1000
CC(C)COCc1nc(NCCc2ccc(F)cc2)c2ccc(-c3ncccc3Cl)nc2n1 [Compound 46, 7-(3-chloropyridin-2-yl)-N-[2-(4-fluorophenyl)ethyl]-2-(isobutoxymethyl)pyrido[2,3-d]pyrimidin-4-amine]	≤ 1000
CC(C)COCc1nc(NCCc2ccccc2Cl)c2ccc(-c3ncccc3Cl)nc2n1 [Compound 47, N-[2-(2-chlorophenyl)ethyl]-7-(3-chloropyridin-2-yl)-2-(isobutoxymethyl)pyrido[2,3-d]pyrimidin-4-amine]	≤ 1000
CC(C)COCc1nc(NCCc2cccc(Cl)c2)c2ccc(-c3ncccc3Cl)nc2n1 [Compound 48, N-[2-(3-chlorophenyl)ethyl]-7-(3-chloropyridin-2-yl)-2-(isobutoxymethyl)pyrido[2,3-d]pyrimidin-4-amine]	≤ 1000
CC(C)COCc1nc(NCCc2ccc(Cl)cc2)c2ccc(-c3ncccc3Cl)nc2n1 [Compound 49, N-[2-(4-chlorophenyl)ethyl]-7-(3-chloropyridin-2-yl)-2-(isobutoxymethyl)pyrido[2,3-d]pyrimidin-4-amine]	≤ 1000
CC(C)COCc1nc(NCCc2ccccc2C(F)(F)F)c2ccc(-c3ncccc3Cl)nc2n1 [Compound 50, 7-(3-chloropyridin-2-yl)-2-(isobutoxymethyl)-N-{2-[2-(trifluoromethyl)phenyl]ethyl}pyrido[2,3-d]pyrimidin-4-amine]	≤ 1000
CC(C)COCc1nc(NCCc2cccc(C(F)(F)F)c2)c2ccc(-c3ncccc3Cl)nc2n1 [Compound 51, 7-(3-chloropyridin-2-yl)-2-(isobutoxymethyl)-N-{2-[3-(trifluoromethyl)phenyl]ethyl}pyrido[2,3-d]pyrimidin-4-amine]	≤ 1000
CCOCc1nc(NCCc2ccccc2F)c2ccc(-c3ncccc3Cl)nc2n1 [Compound 52, 7-(3-chloropyridin-2-yl)-n-(ethoxymethyl)-N-[2-(2-fluorophenyl)ethyl]pyrido[2,3-d]pyrimidin-4-amine]	≤ 1000
CCOCc1nc(NCCc2ccc(F)cc2)c2ccc(-c3ncccc3Cl)nc2n1 [Compound 53, 7-(3-chloropyridin-2-yl)-2-(ethoxymethyl)-N-[2-(4-fluorophenyl)ethyl]pyrido[2,3-d]pyrimidin-4-amine]	≤ 1000
CCOCc1nc(NCCc2ccccc2Cl)c2ccc(-c3ncccc3Cl)nc2n1 [Compound 54, N-[2-(2-chlorophenyl)ethyl]-7-(3-chloropyridin-2-yl)-2-(ethoxymethyl)pyrido[2,3-d]pyrimidin-4-amine]	≤ 1000
CCOCc1nc(NCCc2cccc(Cl)c2)c2ccc(-c3ncccc3Cl)nc2n1 [Compound 55, N-[2-(3-chlorophenyl)ethyl]-7-(3-chloropyridin-2-yl)-2-(ethoxymethyl)pyrido[2,3-d]pyrimidin-4-amine]	≤ 1000
CCOCc1nc(NCCc2ccccc2C(F)(F)F)c2ccc(-c3ncccc3Cl)nc2n1 [Compound 56, 7-(3-chloropyridin-2-yl)-2-(ethoxymethyl)-N-{2-[2-(trifluoromethyl)phenyl]ethyl}pyrido [2,3-d]pyrimidin-4-amine]	≤ 1000
CCOCc1nc(NCCc2cccc(OC)c2)c2ccc(-c3ncccc3Cl)nc2n1 [Compound 57, 7-(3-chloropyridin-2-yl)-2-(ethoxymethyl)-N-[2-(3-methoxyphenyl)ethyl]pyrido[2,3-d]pyrimidin-4-amine]	≤ 1000
Cc1ccccc1CCNc1nc(COCC(C)C)nc2nc(-c3ncccc3Cl)ccc12 [Compound 58, 7-(3-chloropyridin-2-yl)-2-(isobutoxymethyl)-N-[2-(2-methylphenyl)ethyl]pyrido[2,3-d]pyrimidin-4-amine]	≤ 1000
